The text below walks through data of patent US4205069A, “Dipeptide narcotic antagonists” (American Home Products Corporation, priority 1978, dated 1980).

Assay [1] relates to morphine-induced analgesia. Description: Antagonism of morphine-induced analgesia, tail-flick test. It is filed as in vivo, rat. The note with it: rats, tail-flick latency >8 sec. Here is the method: (§1) Duration of analgesia may conveniently be determined by testing for analgesia at regular intervals using a modification of the procedure of D'Amour and Smith, J. Pharmacol., 72, 74 (1941), the tail-flick test. In this test, the existence of analgesia in a rat is determined by measuring the increase in the latency period during which a rat will tolerate a high intensity light beam shining on the tip of its tail.
^a All rats were tested at 5minute intervals in the tailflick test
until latencies of 2 to 5 sec. were obtained on three consecutive trials.
All rats then received an injection of morphine sulfate (as indicated in
the table) and were returned to the tailflick test until three consecutiv
trials with no movement of the tail for 8 seconds were obtained. The rats
then received a subcutaneous injection of the test compound, or a control
injection, and were returned to the tailflick test to determine the
^b The duration score is the number of minutes the animal was
completely analgesic (tailflick latency >8 sec.) following injection of […]

Assay [2] concerns analgesia produced by intraventricular HTyr-D-Ala-Gly-Phe-D-Leu-NH2. Put plainly: Antagonism of enkephalin analog-induced analgesia, tail-flick test. The class given is in vivo, rat. Conditions: rats, HTyr-D-Ala-Gly-Phe-D-Leu-NH2 1 μg intraventricular. Here is the method:
as §1
^a The procedure is the same as in Example 11 except that analgesia
was produced by an intraventricular injection of
HTyr-D-Ala-Gly-Phe-D-Leu-NH2, 1 μg. in 10 μ1. of Ringers
^b The duration score was the same as in Table 1.
On the technique in general: In hot-plate and tail-flick tests a longer latency is read as antinociception.

Setting [3] is: morphine sulfate 2.5 mg/kg subcutaneously, test compound 2.5 mg/kg s.c.
[4] abbreviates: morphine sulfate 2.5 mg/kg subcutaneously, test compound 5 mg/kg s.c.
Setting [5] is: morphine sulfate 5 mg/kg intraperitoneally, test compound 5 mg/kg s.c.

As for `C[C@@H](NC(=O)[C@@H](N)Cc1ccc(O)cc1)C(N)=O` [H-Tyr-D-Ala-NH2], the “Mean Duration of Analgesia” value was above 90.00 min in assay [1] (morphine sulfate 2.5 mg/kg subcutaneously, test compound 1 mg/kg s.c.); 55.00 min in assay [1] (setting [3]); 40.00 min in assay [1] (setting [4]); 41.67 min in assay [1] (setting [5]); 31.0 min in assay [2] (test compound 5 mg/kg s.c.).
As for `COC(=O)[C@@H](C)NC(=O)[C@@H](N)Cc1ccc(O)cc1` [H-Tyr-D-Ala-O-Me, H-Tyr-D-Ala-OMe], the “Mean Duration of Analgesia” value in assay [1] (setting [3]) was found to be 45.00 min; in assay [1] (setting [4]) it was 61.67 min; in assay [1] (morphine sulfate 5 mg/kg intraperitoneally, test compound 2.5 mg/kg s.c.), 37.50 min; in assay [1] (setting [5]), 27.50 min; in assay [2] (test compound 1.25 mg/kg s.c.), 20.0 min; in assay [2] (test compound 5 mg/kg s.c.), 5.0 min. Also, the “Mean Duration of Analgesia” value in assay [2] (test compound 10 mg/kg s.c.) came to 50.0 min.
